The experiment relates to T1, GLL (purified laccase from Gymnopus luxurians).
T1 construct: native extracellular enzyme purified from fermentation broth; monomer, 64 kDa (SDS-PAGE and gel filtration); N-terminus AIGPVTDLHI; gene not cloned; N-terminus very unlike hypothetical G. luxurians laccases KIK69235.1, KIK58304.1, KIK56882.1
The experiment can be described thus: spectrophotometric oxidation at […] nm, Lineweaver-Burk plot. Type of experiment: biochemical, Collybiopsis luxurians. The note with it: pH 2.2 (50 mM citric acid-Na2HPO4), 37 °C; ABTS 12.5-800 μM; free enzyme.

A word on the Km: it is the concentration of substrate that gives half-maximal velocity.

For `CCn1c(=NN=c2sc3cc(S(=O)(=O)O)ccc3n2CC)sc2cc(S(=O)(=O)O)ccc21` [ABTS, 2,2′-azino-bis(3-ethylbenzothiazoline-6-sulfonic acid)], the Michaelis-Menten constant (Km) is 539 µM.

Values taken from article PMC8369832, “Purification and Characterization of a Thermo- and pH-Stable Laccase From the Litter-Decomposing Fungus Gymnopus luxurians and Laccase Mediator Systems for Dye Decolorization” (Frontiers in Microbiology, 2021).
